Source: EP0158267A2, “Pharmaceutical composition containing 5-(2-fluorophenyl)-1,3-dihydro-3-hydroxy-7-nitro- or 5-(2-fluorophenyl)-1,3-dihydro-3-hydroxy-1-methyl-7-nitro-2H-1,4-benzodiazepin-2-one and process for their preparation” (Dolorgiet Beteiligungs-GmbH, priority 1984, dated 1985)

Assays:
Maus [1] = assay: Prolongation of hexobarbital sleeping time (barbiturate narcosis, method of Fujimoto et al.); format: in vivo; details: for Verlängerung der Schlaf-zeit in % bei der Maus nach peroraler Gabe von 1mg/kg KG.: mouse, 1 mg/kg p.o., 30 min before 80 mg/kg hexobarbital i.v., versus control group; for schlafverlängernde Wirkung: statement in words
Experimental: (1) Verlängerung der Schlafzeit
Die Wirkung auf die Barbiturat-Narkose wurde in der Versuchsanordnung von J.M. Fujimoto et al. (J. Pharmacol. Exp. Ther. 129, 1960, 139) nachgewiesen. Gruppen von jeweils 10 männlichen Mäusen wurden die Testsubstanzen als Suspension in wässriger Carboxymethylcellulose mittels einer Stahlsonde auf oralem Weg direkt in den Magen verabreicht. 30 Minuten später wurde den Tieren 80 mg/kg Hexobarbital in eine Schwanzvene injiziert. Es wurde die Dauer des Schlafs gemessen und aus den Schlafzeiten der einzelnen Tiere der Kontroll-und Dosisgruppen die jeweiligen Mittelwerte berechnet. Die Verlängerung der Schlafzeit wurde in Prozent gegenüber der Kontrollgruppe berechnet.

Maus [2] = assay: Acute toxicity, oral, 7 days observation (Litchfield and Wilcoxon); format: in vivo; details: for Zustand nach 24 h: mouse, oral, condition of animals 24 h after dosing; for Toxizität / Zustand der überlebenden Tiere: statement in words; for Zustand der überlebenden Tiere: findings above the dose without findings
Description: (§1) Für diesen Versuch wurden je 10 männliche und weibliche Mäuse verwendet. Die Testsubstanzen wurden als Suspension in wässriger Carboxymethylcellulose per Magensonde verabreicht. Die Beobachtungszeit betrug 7 Tage. Die Ergebnisse wurden nach der Methode von G.T. Litchfield und F.G. Wilcoxon (J. Pharmacol. Exp. Ther. 96, 1949, 99) errechnet. Die Ergebnisse sind in der nachfolgenden Tabelle zusammengestellt.

[3] = as above; format: in vivo, Maus; details: in vivo; mouse, oral, 7 days observation; * = highest technically applicable dose; read-out: Akute Toxi-zität LD50 mg/kg KG. Maus oral
Description: as §1

Maus [4] = assay: Fighting test: inhibition of current-induced fighting (method of Tedeschi et al.); format: in vivo; details: statement in words; for tranquillisierende Wirkung im Kampftest: DP 327 compared with Flunitrazepam
Description: Die Hemmwirkung gegenüber strominduzierter Kampfhandlungen bei Mäusen wurde in der Versuchsanordnung von R. Tedeschi et al. (J. Pharmacol. Exp. Ther. 125, 1959, 28) ermittelt. 10 Paare weiblicher Mäuse werden am Vortag des Versuches 3 Minuten elektrischen Stromstößen von 3,5 mA, 5 Hz und 5 msec ausgesetzt. Am Versuchstag werden die Testsubstanzen als Suspension in wässriger Carboxymethylcellulose mittels Magensonde peroral verabreicht. 30 Minuten nach der Verabreichung werden jeweils ein Paar in einem Testkäfig wieder den Stromstößen ausgesetzt und die innerhalb von 3 Minuten ausgelösten Kampfhandlungen gezählt. Die Zahl der Kampfhandlungen der jeweiligen Dosisgruppen werden addiert und in Prozent gegenüber der Kontrollgruppe berechnet. Der ED50-Wert wurde mittels halblogarithmischer Regression aus den Dosis-Wirkungsbeziehungen bestimmt.

[5] = Sleep induction (onset), no method described; format: in vivo; details: statement in words
[6] = DP 327 compared with Flunitrazepam, Beispiel 12 of DE-OS 14 45 873 compared with DP 327

## CN1C(=O)C(O)N=C(c2ccccc2)c2cc([N+](=O)[O-])ccc21 (centres unmarked) [DE-OS 14 45 873 Beispiel 12, reference compound]
Maus [1]
  Verlängerung der Schlaf-zeit in % bei der Maus nach peroraler Gabe von 1mg/kg KG.: 99%
Maus [1]; [6]
  schlafverlängernde Wirkung: geringerer schlafverlängernder Wirkung
Maus [2]
  Zustand nach 24 h: bis 3200 mg/kg ohne Befund; ab 3200 mg/kg starke Sedierung, Koma.
  Toxizität: toxischer als DP 327
[3]
  LD50 at 168 h: 4700 mg/kg

## CN1C(=O)C(O)N=C(c2ccccc2F)c2cc([N+](=O)[O-])ccc21 (centres unmarked) [DP 327, 5-(2-Fluorphenyl)-1,3-dihydro-3-hydroxy-1-methyl-7-nitro-2H-1,4-benzodiazepin-2-on]
Maus [4]; compared with Lormetazepam
  tranquillisierende Wirkung: deutlich überlegen
Maus [4]
  tranquillisierende Wirkung im Kampftest: etwa doppelt so starke tranquillisierende Wirkung
Maus [1]
  Verlängerung der Schlaf-zeit in % bei der Maus nach peroraler Gabe von 1mg/kg KG.: 156%
Maus [1]; compared with Lormetazepam
  schlafverlängernde Wirkung: deutlich überlegen
Maus [1]; [6]
  schlafverlängernde Wirkung: gleichwertig
[5]
  Schlafinduktion: rasche Schlafinduktion
Maus [2]
  Zustand nach 24 h: bis 3600 mg/kg ohne Befund; 4824-8687 mg/kg leichte Sedierung.
  Toxizität: sehr wenig toxisch
  Zustand der überlebenden Tiere: nur eine leichte Sedierung und Stereotypie
Maus [2]; compared with Lormetazepam
  Toxizität: deutlich überlegen
Maus [2]; up to the highest applicable dose of 8687 mg/kg
  Todesfälle: nur vereinzelt Todesfälle
[3]
  LD50 at 168 h: > 8690 mg/kg

## O=C1Nc2ccc([N+](=O)[O-])cc2C(c2ccccc2F)=NC1O (centres unmarked) [DP 370, 5-(2-Fluorphenyl)-1,3-dihydro-3-hydroxy-7-nitro-2H-1,4-benzodiazepin-2-on]
Maus [4]
  tranquillisierende Wirkung im Kampftest: gute tranquillisierende
Maus [1]
  Verlängerung der Schlaf-zeit in % bei der Maus nach peroraler Gabe von 1mg/kg KG.: 118%
Maus [1]; [6]
  schlafverlängernde Wirkung: gute schlafverlängerde Wirkung
Maus [2]
  Zustand nach 24 h: bis 4640 mg/kg ohne Befund; ab 4640 mg/kg leichte Sedierung Sedierung, und Ataxie.
  Toxizität: wesentlich geringeren Toxizität als die genannten Vergleichssubstanzen
[3]
  LD50 at 168 h: > 10000 mg/kg

## CN1C(=O)CN=C(c2ccccc2F)c2cc([N+](=O)[O-])ccc21 [Flunitrazepam, 5-(2-Fluorphenyl)-1,3-dihydro-1-methyl-7-nitro-2H-1,4-benzodiazepin-2-on, reference compound]
Maus [1]
  Verlängerung der Schlaf-zeit in % bei der Maus nach peroraler Gabe von 1mg/kg KG.: 179%
[5]
  Schlafinduktion: langsam einsetzt
Maus [2]
  Zustand nach 24 h: bis 1100 mg/kg ohne Befund; ab 1100 mg/kg starke Sedierung, Koma, Stereotypie.
  Zustand der überlebenden Tiere: von starker Sedierung und Stereotypie bis zum Koma
[3]
  LD50 at 168 h: 2700 mg/kg

## CN1C(=O)C(O)N=C(c2ccccc2Cl)c2cc(Cl)ccc21 (centres unmarked) [Lormetazepam, 7-Chlor-5-(2-chlorphenyl)-1,3-dihydro-3-hydroxy-1-methyl-2H-1,4-benzodiazepin-2-on, reference compound]
Maus [1]
  Verlängerung der Schlaf-zeit in % bei der Maus nach peroraler Gabe von 1mg/kg KG.: 78%
[5]
  Schlafinduktion: fehlt
Maus [2]
  Zustand nach 24 h: 900-1240 mg/kg leichte Sedierung; ab 1700 mg/kg zunehmend starke Sedierung.
[3]
  LD50 at 168 h: 6300 mg/kg
